Read-outs that look alike come from different tables or passages of the source. Non-standard residues stand in square brackets, D forms with d. Residues, ends and D or L forms follow the SMILES beside them. *: point of attachment. Sta = CC(C)C[C@H](N)[C@@H](O)CC(=O)O; Isovaleryl = CC(C)CC(=O)*
Columns and labels:
[1] = system: lysate and culture supernatant proteolytic activity; format: biochemical, Entamoeba histolytica
Protocol: (§1) "Log-phase" trophozoites (72 hours after passage) were washed to remove serum, and incubated in PBS with penicillin/streptomycin for 3 hours at 37° C. Amebae maintained greater than 90% viability as judged by Trypan blue exclusion and the absence of cytosolic alcohol dehydrogenase activity (Vallee 1955) in the PBS after incubation. Amebae were centrifuged, and the resulting supernatant passed through a 0.45 micron filter. This was designated as crude culture supernatant (CS).
For extracts, trophozoites were resuspended in PBS with penicillin/streptomycin and lysed in a nitrogen cavitation bomb (Kontes Glass Co.; Vineland, N.J.) after equilibration at 30 atm (3×10^6N/m^2) for 1 hour at 40° C. After centrifugation, the supernatant of this preparation was passed through a 0.45 micron filter and designated as soluble "lysate".
(§2) Inhibitors were preincubated with the enzyme at the indicated concentrations (See Table 1) for 20 minutes at ambient temperature; substrate was then added and proteolytic activity assayed against Z-Arg-Arg-AMC. All inhibitors were obtained from Sigma except pepstatin A (Transformation Research, Inc., Farminham, MA) and bovine serum (Biofluids). TLCK was prepared as a stock solution in dimethyl sulfoxide (DMSO). Phenlylmethylsulfonyl fluoride (PMSF), pepstatin A, and 1,10-phenanthroline stock solutions were made up in ethanol. An equal volume of DMSO or ethanol alone was tested with enzynme and inhibition was calculated relative to the appropriate solvent control.

[2] = system: Mono P-purified enzyme (neutral thiol proteinase); experiment: Inhibition of MonoP purified enzyme, Azocoll assay; format: biochemical, Entamoeba histolytica; details: for Activity as % of control (without inhibitor), Mono P-purified Enzyme: Azocoll assay; for Effect of inhibitor on proteolytic activity of purified enzyme: at the concentrations tested (Table I)
Protocol: Fractions of peak activity from the anion exchange column were pooled and dialyzed overnight against buffer (25 mM bis-Tris, 2 mM DTT, pH 7.1) and applied to a MonoP chromatofocusing column at a flow rate of 0.25 ml/min. Typically, about 3 ml at 0.5 mg/ml were injected. Protein was eluted at a flow rate of 0.5 ml/min over a pH gradient of 7-5 formed with 10% Polybuffer 74, pH 5. (Polybuffer 74 is the Trademark of Pharmacia Inc., 800 Centennial Avenue, Piscataway, NJ 08854 for an amphoteric chromatofocusing buffer.) The gradient was generated with the GP-250 gradient programmer and continuously monitored with a pH meter and flow cell. Fractions were collected and checked for activity as described above.
(§3) Azocollytic activity was measured by incubation of 3 mg Azocoll with 10-100 microliters of enzyme (1 ml reaction volume) for 3-16 hours at 37° C. The tubes were then vortexed, microfuged, and the amount of degradation determined from the absorbance of the supernatant at 540 nm (A540). Control tubes were incubated without enzyme; bovine trypsin (5 micrograms; Sigma) was used to determine the total available substrate.
as §2, with “All” for “Inhibitors were preincubated with the enzyme at the indicated concentrations (See Table 1) for 20 minutes at ambient temperature; substrate was then added and proteolytic activity assayed against Z-Arg-Arg-AMC. All”

[3] = system: culture supernatant proteinase activity (Entamoeba histolytica trophozoites); experiment: Inhibition of culture supernatant proteolytic activity, Z-Arg-Arg-AMC assay; format: biochemical
Protocol: as §1
The Z-Arg-Arg-AMC assay is based on the fluorescence of the cleaved AMC group at 460 nm when excited at 380 nm (Castillo, et al, 1979). Enzyme samples (5-25 microliters) were added to a 4 micromolar solution of Z-Arg-Arg-AMC in buffer to a total volume of 2 ml. The rate of substrate hydrolysis at room temperature was determined from the rate of increase of fluorescence, monitored on a continuously recording spectrofluorometer (Aminco SPF-500; American Instrument Co., Silver Spring, MD). The scale was calibrated with a stock solution of 1.3 micromolar AMC (Sigma).
as §2

[4] = system: culture supernatant proteinase activity (Entamoeba histolytica trophozoites); experiment: Inhibition of culture supernatant proteolytic activity, Azocoll assay; format: biochemical; details: inhibitor 2 mM
Protocol: as §1, §3
as §2, with “All” for “Inhibitors were preincubated with the enzyme at the indicated concentrations (See Table 1) for 20 minutes at ambient temperature; substrate was then added and proteolytic activity assayed against Z-Arg-Arg-AMC. All”

[5] = system: neutral thiol proteinase; experiment: Effect of DTT on enzyme activity in assays; format: biochemical, Entamoeba histolytica; details: 2 mM DTT
Protocol: 2 mM DTT was maintained throughout as it enhanced activity 2-4-fold in assays and prolonged stability of the enzyme during storage. Even so, as much as 25% of the activity was lost per day in storage at -20° C.
All assays were performed in 100 mM Tris/HCl, 2 mM DTT, pH 7.4 unless otherwise noted.

[6] = system: Plasminogen; experiment: Plasminogen activator assay (125I-fibrin plates); format: biochemical; details: 3 hours; 100 microliters culture supernatant or lysate; urokinase 10 ploug units; less plasminogen-free control
Protocol: Plasminogen activator activity was determined by the method of Unkeless, et al. (1973) as modified by Aggeler, et al. (1981). Briefly, 24-well plates were coated with [^125 I]-labeled fibrinogen, and incubated with calf serum for two hours at 37° C. to convert fibrinogen to fibrin. Plasminogen (280 ng; final concentration, 6 nM) was added in 50 mM Tris/HCl (pH 7.8) with 100 microliters of culture supernatant or amebic lysate or 50 microliters of MonoP-purified enzyme, to a final volume of 0.5 ml. Controls were incubated without plasminogen added. Aliquots of supernatant (50 microliters) from quadruplicate wells were counted in a gamma counter (Auto-Gamma 500; Packard Instrument Corp.; Downer's Grove, IL). Total available fibrin was determined by trypsin digest. Urokinase (10 ploug units, Calbiochem; La Jolla, CA) was assayed for comparison. Results were expressed as the percentage of total available fibrin degraded less the percentage degraded by the corresponding plasminogen-free control.

[7] = system: type I collagen; experiment: Degradation of type I collagen, SDS-PAGE; format: biochemical, bovine; details: 3.5 hours at 37° C.
Protocol: 40 microgram aliquots of fibronectin (Bethesda Research Laboratories (BRL); Bethesda, MD), laminin (BRL), or type 1 collagen ("Vitrogen 100"), (Vitrogen 100 is the Trademark of Collagen Corp., Palo Alto, CA for a sterile solution of purified bovine dermal type I collagen), diluted to 1 mg/ml in buffer with 150 mM NaCl, were mixed with 40 microliters of MonoP purified enzyme or 10-20 microliters of culture supernatant. Volumes were brought to 80 microliters with 100 mM Tris, pH 7.2, and DTT was added to a final concentration of 2 mM. Samples were incubated for 3.5 hours (fibronectin and collagen) or 20 hours (laminin) at 37° C. along with matched amounts of substrate or enzyme alone as controls. Collagen was also incubated with 0.5 micrograms of TPCK trypsin (trypsin with tosyl-phenylalanine-chloromethyl-ketone to inhibit any contaminating chymotrypsin, (Worthington Biochemical Corp.; Freehold, NJ) to assay for non-specific cleavage.
Reactions were terminated with 2x sample buffer, and analyzed by SDS-PAGE (laminin with 5% and 10% gels; fibronectin with 7% gels; collagen with 10% gels) for evidence of degradation; 80 microliters was loaded into each lane.

[8] = at the concentrations tested (Table I)

O=C(O)CN(CCN(CC(=O)O)CC(=O)O)CC(=O)O [ethylenediaminetetracetic acid (EDTA), ethylenediaminetetracetic acid]
Effect of inhibitor on proteolytic activity of lysate and culture supernatant [1]: not affected | Activity as % of control (without inhibitor), Mono P-purified Enzyme ([2]; inhibitor 10 mM): 100 % of control | Activity as % of control (without inhibitor), Culture Supernatant ([3]; inhibitor 10 mM, 20 min): 100 % of control

O=S(=O)(F)Cc1ccccc1 [phenylmethylsulfonyl fluoride (PMSF), phenylmethylsulfonyl fluoride]
Activity as % of control (without inhibitor), Culture Supernatant [4]: 100 % of control | Effect of inhibitor on proteolytic activity of lysate and culture supernatant [1, 8]: not affected | Activity as % of control (without inhibitor), Mono P-purified Enzyme ([2]; inhibitor 2 mM): 100 % of control

CC(=O)N[C@@H](CC(C)C)C(=O)N[C@@H](CC(C)C)C(=O)N[C@H](C=O)CCCNC(=N)N [leupeptin]
Effect of inhibitor on proteolytic activity of purified enzyme [2]: completely inhibited | Activity as % of control (without inhibitor), Mono P-purified Enzyme ([2]; inhibitor 10 microM): 16 % of control | Activity as % of control (without inhibitor), Mono P-purified Enzyme ([2]; inhibitor 50 microM): 0 % of control | Activity as % of control (without inhibitor), Culture Supernatant ([3]; inhibitor 10 microM, 20 min): 68 % of control

CCN1C(=O)C=CC1=O [N--ethylmaleimide (NEM), N-ethylmaleimide]
Effect of inhibitor on proteolytic activity of lysate and culture supernatant [1, 8]: completely inhibited | Effect of inhibitor on proteolytic activity of purified enzyme [2]: completely inhibited | Activity as % of control (without inhibitor), Mono P-purified Enzyme ([2]; inhibitor 5 mM): 0 % of control | Activity as % of control (without inhibitor), Culture Supernatant ([3]; inhibitor 5 mM, 20 min preincubation): 5 % of control

O[C@H](CS)[C@H](O)CS (racemic) [DTT, DL-dithiothreitol]
enhancement of enzyme activity in assays [5]: 2-4 -fold

Cc1ccc(S(=O)(=O)N[C@@H](CCCCN)C(=O)CCl)cc1 [tosyl-lysyl-chloromethyl ketone (TLCK), tosyl-lysyl-chloromethyl ketone]
Effect of inhibitor on proteolytic activity of lysate and culture supernatant [1, 8]: completely inhibited | Effect of inhibitor on proteolytic activity of purified enzyme [2]: completely inhibited | Activity as % of control (without inhibitor), Mono P-purified Enzyme ([2]; inhibitor 0.1 mM): 0 % of control | Activity as % of control (without inhibitor), Culture Supernatant ([3]; inhibitor 0.1 mM, 20 min): 0 % of control

CC(C)CC(=O)N[C@H](C(=O)N[C@H](C(=O)N[C@@H](CC(C)C)[C@@H](O)CC(=O)N[C@@H](C)C(=O)N[C@@H](CC(C)C)[C@@H](O)CC(=O)O)C(C)C)C(C)C [pepstatin A] (Isovaleryl-VV[Sta]A[Sta]-OH)
Effect of inhibitor on proteolytic activity of lysate and culture supernatant [1, 8]: not affected | Activity as % of control (without inhibitor), Mono P-purified Enzyme ([2]; inhibitor 100 microgram/ml): 100 % of control | Activity as % of control (without inhibitor), Culture Supernatant ([3]; inhibitor 100 microgram/ml, 20 min): 100 % of control

c1cnc2c(c1)ccc1cccnc12 [1,10-phenanthroline]
Effect of inhibitor on proteolytic activity of lysate and culture supernatant [1, 8]: not affected | Activity as % of control (without inhibitor), Mono P-purified Enzyme ([2]; inhibitor 2 mM): 100 % of control | Activity as % of control (without inhibitor), Culture Supernatant ([3]; inhibitor 2 mM, 20 min): 100 % of control

O=C(O)CI [iodoacetate]
Effect of inhibitor on proteolytic activity of lysate and culture supernatant [1]: completely inhibited | Effect of inhibitor on proteolytic activity of purified enzyme [2]: completely inhibited | Activity as % of control (without inhibitor), Mono P-purified Enzyme ([2]; inhibitor 3 mM): 0 % of control | Activity as % of control (without inhibitor), Culture Supernatant ([3]; inhibitor 3 mM, 20 min): 0 % of control

urokinase
available fibrin degraded through plasminogen activation [6]: 38%

alpha1 -proteinase inhibitor: protein proteinase inhibitor obtained from Sigma
Effect of inhibitor on proteolytic activity of purified enzyme [2]: completely inhibited

B1: trypsin: TPCK trypsin (Worthington) used to assay non-specific cleavage of collagen (protein, UniProt P00760 24-246, looked up)
Serine protease 1: IVGGYTCGANTVPYQVSLNSGYHFCGGSLINSQWVVSAAHCYKSGIQVRLGEDNINVVEGNEQFISASKSIVHPSYNSNTLNNDIMLIKLKSAASLNSRVASISLPTSCASAGTQCLISGWGNTKSSGTSYPDVLKCLKAPILSDSSCKSAYPGQITSNMFCAGYLEGGKDSCQGDSGGPVVCSGKLQGIVSWGSGCAQKNKPGVYTKVCNYVSWIKQTIASN
modifications: TPCK-treated
notes: TPCK trypsin (Worthington) used to assay non-specific cleavage of collagen
degradation of type I collagen [7]: lack of non-specific proteolysis
